Converted amounts (≈) assume the structure as drawn. Read-outs that look alike come from different tables or passages of the source.
Columns and labels:
[1] = test system: S. typhimurium ATCC 14028; assay: micro-dilution broth MIC; format: cell-based, Salmonella Typhimurium; conditions: Gram-negative
Protocol: (§1) The cytotoxic effect of the compounds was evaluated using glioblastoma (T98G), neuroblastoma (SK-N-AS) and lung adenocarcinoma (A549) cell lines and human normal skin fibroblasts (CCD-1059Sk). T98G and SK-N-AS cells were cultured in DMEM, high glucose; A549 cells were cultured in DMEM/F12; and CCD-1059Sk cells were cultured in MEM. All media were supplemented with 10% FBS, 100 U/mL of penicillin and […] of streptomycin (PenStrep). Cells were incubated at 37 °C in a humidified atmosphere of 5% CO2. Stock solutions were prepared by dissolving the compounds in sterile dimethyl sulfoxide (DMSO) to obtain the concentration of 50 mg/mL. The cells were seeded into 96-well sterile plates (Nunc) at a density of 1 × 10^5 cells/mL. After 24 h of incubation, the medium was removed from each well, and then cells were incubated for the next 24 h with different concentrations of the tested compounds (1–100 µg/mL) in respective medium containing 2% FBS. Cytotoxicity of the compounds was evaluated using the MTT assay, which is based on the conversion of 3-(4,5-dimethylthiazol-2-yl)-2,5-diphenyltetrazolium bromide (MTT) into dark-blue formazan crystals. Briefly, after 24 h incubation of cells with varying concentrations of the tested compounds, all culture media were removed from the plates. Cells were washed with PBS, and then 100 µL of medium containing 10% MTT solution (5 mg/mL) was added to each well. After 3 h incubation, 100 µL (per well) of 10% SDS buffer solution was added to solubilize formazan crystals. After overnight incubation, the absorbance was measured at 570 nm using a microplate reader (Epoch, BioTek Instruments). Experiments were repeated twice, and the measurements in each experiment were run in triplicate. The viability of the investigated cells was expressed as a percentage of the viability of the untreated cells, and the results were transformed into IC50 values (expressed as mean ± SD). […] The complexes were screened for antibacterial and antifungal activities by micro-dilution broth method using Mueller–Hinton broth for growth of bacteria or Mueller–Hinton broth with 2% glucose for growth of fungi. Minimal inhibitory concentrations (MICs) of the tested derivatives were evaluated for the panel of the reference microorganisms from the American Type Culture Collection (ATCC), including Gram-negative bacteria (Escherichia coli ATCC 25922, Salmonella Typhimurium ATCC14028, Klebsiella pneumoniae ATCC 13883, Pseudomonas aeruginosa ATCC 9027, Proteus mirabilis ATCC 12453), Gram-positive bacteria (Staphylococcus aureus ATCC 25923, Staphylococcus epidermidis ATCC 12228, Micrococcus luteus ATCC 10240, Enterococcus faecalis ATCC 29212, Bacillus subtilis ATCC 6633, Bacillus cereus ATCC 10876) and fungi (Candida albicans ATCC 10231, Candida parapsilosis ATCC 22019, C. glabrata ATCC 90030).

E. coli ATCC 25922 = assay: micro-dilution broth MIC; format: cell-based, Escherichia coli
Protocol: as §1

P. mirabilis ATCC 12453 = assay: micro-dilution broth MIC; format: cell-based, Proteus mirabilis
Protocol: as §1

K. pneumoniae ATCC 13883 = assay: micro-dilution broth MIC; format: cell-based, Klebsiella pneumoniae
Protocol: as §1

P. aeruginosa ATCC 9027 = assay: micro-dilution broth MIC; format: cell-based, Pseudomonas aeruginosa
Protocol: as §1

[2] = test system: glioblastoma (T98G) cell line; assay: MTT cytotoxicity assay, T98G; format: cell-based; conditions: MTT assay after 24 h incubation; for IC50: Homo sapiens, T98G, read-out: IC50 ± SD, T98G
Protocol: as §1

[3] = test system: neuroblastoma (SK-N-AS) cell line; assay: MTT cytotoxicity assay, SK-N-AS; format: cell-based, human; conditions: MTT assay after 24 h incubation; for IC50: Homo sapiens, SK-N-AS, read-out: IC50 ± SD, SK-N-AS
Protocol: as §1

[4] = test system: lung adenocarcinoma (A549) cell line; assay: MTT cytotoxicity assay, A549; format: cell-based, human; conditions: MTT assay after 24 h incubation; for IC50: Homo sapiens, A549, read-out: IC50 ± SD, A549
Protocol: as §1

[5] = test system: human normal skin fibroblasts (CCD-1059Sk); assay: MTT cytotoxicity assay, normal fibroblasts; format: cell-based; conditions: MTT assay after 24 h incubation, normal cells; for IC50: Homo sapiens, CCD-1059Sk, read-out: IC50 ± SD, CCD-1059-Sk
Protocol: as §1

S. aureus ATCC 25923 = assay: micro-dilution broth MIC; format: cell-based, Staphylococcus aureus
Protocol: as §1

[6] = test system: S. epidermidis ATCC 12228; assay: micro-dilution broth MIC; format: cell-based, Staphylococcus epidermidis
Protocol: as §1

M. luteus ATCC 10240 = assay: micro-dilution broth MIC; format: cell-based, Micrococcus luteus
Protocol: as §1

E. faecalis ATCC 29212 = assay: micro-dilution broth MIC; format: cell-based, Enterococcus faecalis
Protocol: as §1

B. subtilis ATCC 6633 = assay: micro-dilution broth MIC; format: cell-based, Bacillus subtilis
Protocol: as §1

B. cereus ATCC 10876 = assay: micro-dilution broth MIC; format: cell-based, Bacillus cereus
Protocol: as §1

C. glabrata ATCC 2091 = assay: micro-dilution broth MIC; format: cell-based
C. albicans ATCC 102231 = assay: micro-dilution broth MIC; format: cell-based, Candida albicans
Protocol: as §1

[7] = test system: C. parapsilosis ATCC 22019; assay: micro-dilution broth MIC; format: cell-based, Candida parapsilosis
Protocol: as §1

[8] = Salmonella enterica, read-out: MIC
[9] = Escherichia coli, ATCC25922, Gram-negative, read-out: MIC
[10] = Proteus mirabilis, ATCC12453, Gram-negative, read-out: MIC
[11] = Klebsiella pneumoniae, ATCC13883, Gram-negative, read-out: MIC
[12] = Pseudomonas aeruginosa, ATCC9027, Gram-negative, read-out: MIC
[13] = Staphylococcus aureus, ATCC25923, S. aureus ATCC 25923, Gram-positive, read-out: MIC
[14] = Staphylococcus epidermidis, ATCC12228, S. epidermidis ATCC 12228, Gram-positive, read-out: MIC
[15] = Micrococcus luteus, ATCC10240, M. luteus ATCC 10240, Gram-positive, read-out: MIC
[16] = Enterococcus faecalis, ATCC29212, E. faecalis ATCC 29212, Gram-positive, read-out: MIC
[17] = Bacillus subtilis, ATCC6633, B. subtilis ATCC 6633, Gram-positive, read-out: MIC
[18] = Bacillus cereus, ATCC10876, B. cereus ATCC 10876, Gram-positive, read-out: MIC
[19] = Nakaseomyces glabratus, ATCC2091, yeast, read-out: MIC
[20] = Candida albicans, ATCC102231, yeast, read-out: MIC
[21] = Lodderomyces parapsilosis, ATCC22019, yeast, read-out: MIC

Row | SMILES | MIC [1, 8] | MIC (E. coli ATCC 25922; [9]) | MIC (P. mirabilis ATCC 12453; [10]) | MIC (K. pneumoniae ATCC 13883; [11]) | MIC (P. aeruginosa ATCC 9027; [12]) | IC50 [2] | IC50 [3] | IC50 [4] | IC50 [5] | MIC (S. aureus ATCC 25923; [13]) | MIC [6, 14] | MIC (M. luteus ATCC 10240; [15]) | MIC (E. faecalis ATCC 29212; [16]) | MIC (B. subtilis ATCC 6633; [17]) | MIC (B. cereus ATCC 10876; [18]) | MIC (C. glabrata ATCC 2091; [19]) | MIC (C. albicans ATCC 102231; [20]) | MIC [7, 21] | also measured
1 | O=C(O)c1cn(C2CC2)c2cc(N3CCNCC3)c(F)cc2c1=O [Cip, ciprofloxacin, reference compound] | 0.061 µg/mL (≈ 0.184 µM) | 0.015 µg/mL (≈ 0.0453 µM) | 0.03 µg/mL (≈ 0.0905 µM) | 0.12 µg/mL (≈ 0.362 µM) | 0.49 µg/mL (≈ 1.48 µM) | – | – | – | – | – | – | – | – | – | – | – | – | – | –
2 | Brc1cnc2[nH]c(-c3cccnc3)nc2c1 [Complex L4] | > 1000 µg/mL | > 1000 µg/mL | > 1000 µg/mL | > 1000 µg/mL | > 1000 µg/mL | > 100 µg/mL | > 100 µg/mL | > 100 µg/mL | > 100 µg/mL | > 1000 µg/mL | 1000 µg/mL | > 1000 µg/mL | 1000 µg/mL | 1000 µg/mL | 1000 µg/mL | > 1000 µg/mL | 500 µg/mL | 1000 µg/mL | –
3 | c1cnc2[nH]c(-c3ccncc3)nc2c1 [Complex L2] | 1000 µg/mL | 1000 µg/mL | 1000 µg/mL | > 1000 µg/mL | > 1000 µg/mL | 35 ± 1.44 µg/mL | 81.3 ± 3.31 µg/mL | 43.1 ± 2.17 µg/mL | > 100 µg/mL | 1000 µg/mL | 1000 µg/mL | 250 µg/mL | 1000 µg/mL | 500 µg/mL | 250 µg/mL | > 1000 µg/mL | 1000 µg/mL | > 1000 µg/mL | –
4 | CN[C@H](CC(C)C)C(=O)N[C@H]1C(=O)N[C@@H](CC(N)=O)C(=O)N[C@H]2C(=O)N[C@H]3C(=O)N[C@H](C(=O)N[C@H](C(=O)O)c4cc(O)cc(O)c4-c4cc3ccc4O)[C@H](O)c3ccc(c(Cl)c3)Oc3cc2cc(c3O[C@@H]2O[C@H](CO)[C@@H](O)[C@H](O)[C@H]2O[C@H]2C[C@](C)(N)[C@H](O)[C@H](C)O2)Oc2ccc(cc2Cl)[C@H]1O [Van, Vancomycin, reference compound] | – | – | – | – | – | – | – | – | – | – | – | – | – | – | – | – | – | – | MIC (S. aureus ATCC 25923; Staphylococcus aureus, ATCC25923): 0.98 µg/mL (≈ 0.676 µM); MIC ([6]; Staphylococcus epidermidis, ATCC12228): 0.98 µg/mL (≈ 0.676 µM); MIC (M. luteus ATCC 10240; Micrococcus luteus, ATCC10240): 0.12 µg/mL (≈ 0.0828 µM); MIC (E. faecalis ATCC 29212; Enterococcus faecalis, ATCC29212): 1.95 µg/mL (≈ 1.35 µM); MIC (B. subtilis ATCC 6633; Bacillus subtilis, ATCC6633): 0.24 µg/mL (≈ 0.166 µM); MIC (B. cereus ATCC 10876; Bacillus cereus, ATCC10876): 0.98 µg/mL (≈ 0.676 µM)
5 | c1cc(-c2nc3ccncc3[nH]2)ccn1 [Complex L1] | > 1000 µg/mL | > 1000 µg/mL | > 1000 µg/mL | > 1000 µg/mL | > 1000 µg/mL | 41.2 ± 2.3 µg/mL | > 100 µg/mL | > 100 µg/mL | > 100 µg/mL | > 1000 µg/mL | > 1000 µg/mL | 500 µg/mL | > 1000 µg/mL | > 1000 µg/mL | > 1000 µg/mL | > 1000 µg/mL | > 1000 µg/mL | > 1000 µg/mL | –
6 | [Cl][Zn-2]1([Cl])[n+]2cccc(c2)-c2nc3c(ccc[n+]3[Zn-2]([Cl])([Cl])[n+]3cccc(c3)-c3nc4c(ccc[n+]41)[nH]3)[nH]2 [Complex C3] | – | – | – | – | – | – | – | – | – | – | – | – | – | – | – | – | – | – | IC50 ± SD, T98G [2]: 46.54 ± 1.86 µg/mL; IC50 ± SD, SK-N-AS [3]: 41.60 ± 1.93 µg/mL; IC50 ± SD, A549 [4]: 41.34 ± 2.17 µg/mL; IC50 ± SD, CCD-1059-Sk [5]: 30.84 ± 1.11 µg/mL; MIC (S. aureus ATCC 25923; S. aureus ATCC 25923, Gram-positive): 1000 µg/mL; MIC ([6]; S. epidermidis ATCC 12228, Gram-positive): 1000 µg/mL; MIC (M. luteus ATCC 10240; M. luteus ATCC 10240, Gram-positive): 500 µg/mL; MIC (E. faecalis ATCC 29212; E. faecalis ATCC 29212, Gram-positive): >1000 µg/mL; MIC (B. subtilis ATCC 6633; B. subtilis ATCC 6633, Gram-positive): >1000 µg/mL; MIC (B. cereus ATCC 10876; B. cereus ATCC 10876, Gram-positive): >1000 µg/mL; MIC [1]: >1000 µg/mL; MIC (E. coli ATCC 25922; Gram-negative): >1000 µg/mL; MIC (P. mirabilis ATCC 12453; Gram-negative): >1000 µg/mL; MIC (K. pneumoniae ATCC 13883; Gram-negative): >1000 µg/mL; MIC (P. aeruginosa ATCC 9027; Gram-negative): >1000 µg/mL; MIC (C. glabrata ATCC 2091; yeast): >1000 µg/mL; MIC (C. albicans ATCC 102231; yeast): >1000 µg/mL; MIC ([7]; yeast): >1000 µg/mL
7 | C[C@@H]1[C@H](O)[C@@H](C)/C=C/C=C/CC/C=C/C=C/C=C/C=C/C(O[C@H]2O[C@H](C)[C@@H](O)[C@H](N)[C@@H]2O)CC2O[C@](O)(CC(O)C(O)CCC(O)CC(O)CC(O)CC(=O)O[C@H]1C)CC(O)C2C(=O)O (some centres unmarked) [Nys, nystatin, reference compound] | – | – | – | – | – | – | – | – | – | – | – | – | – | – | – | – | – | – | MIC (C. glabrata ATCC 2091; yeast): 0.48 µg/mL (≈ 0.518 µM); MIC (C. albicans ATCC 102231; yeast): 0.24 µg/mL (≈ 0.259 µM); MIC ([7]; yeast): 0.24 µg/mL (≈ 0.259 µM)
